We go through four molecules from ChEMBL document CHEMBL1201862, “PubChem BioAssay data set” (2004).

Structures are written as SMILES.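 Grown in 96-well plates, cells were treated for 48 hours with each compound at five concentrations. Insufficient inhibition: endpoint recorded as highest concentration tested. GI50: concentration for 50% inhibition of growth.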 Active and inactive are the calls of the source. No stated cut-off is given here; in the data, active = GI50 up to about 1.1 µM and inactive = higher. Some results are limits rather than exact numbers.

Holding throughout (assay): inhibition of tumour cell growth, NCI panel, 48 h
The test system of assay [1] is SN12C.
Assay [2] has as its system A498.
The subject of assay [3] is HCT-15.
Assay [4] relates to OVCAR-8.
In assay [5] the test system is COLO 205.
Assay [6] relates to MDA-MB-435.
For assay [7], the system named is NCI/ADR-RES.
Assay [8] deals with U-251.
Assay [9] relates to SF-268.
Assay [10] deals with UO-31.
Assay [11] has as its system CCRF-CEM.
The subject of assay [12] is EKVX.
Assay [13] concerns IGROV-1.
For assay [14], the system named is OVCAR-5.
Assay [15] relates to OVCAR-3.
Assay [16] deals with Malme-3M.
For assay [17], the system named is HOP-62.
In assay [18] the test system is HCT-116.
Assay [19] concerns CAKI-1.
The test system of assay [20] is 786-0.

Consider `COc1cccc2c1OC1c3ccccc3OCC1(O)C2` (centres undefined), for which the GI50 in [1] was > 100 µM (inactive); in [2] it was > 100 µM (inactive); in [3] it was over 100 µM; in assay [4] it was > 100 µM (inactive); in [5], > 100 µM (inactive); in assay [6], > 100 µM (inactive). In addition, the GI50 in assay [7], in [8], in [9], in [10], in assay [11] and in [12] was > 100 µM (inactive) each time. Further, the GI50 in assay [13], in [14], in assay [15], in assay [16], in assay [17] and in [18] was > 100 µM (inactive) throughout. The GI50 in assay [19] and in assay [20] was > 100 µM (inactive) each time.
Regarding `COP(=O)(/C=C/c1cc(C(=O)OCc2ccccc2)n(S(=O)(=O)c2ccccc2)c1)OC`, the GI50 is > 100 µM (inactive) in assay [1]; > 100 µM (inactive) in assay [2]; over 100 µM in assay [3]; > 100 µM (inactive) in assay [4]; > 100 µM (inactive) in assay [5]; > 100 µM (inactive) in [6]. The GI50 in [7], in assay [8], in assay [9], in [10], in [11] and in assay [12] was > 100 µM (inactive) in each case. The GI50 in [13], in [14], in [15], in assay [16], in assay [17] and in [18] was > 100 µM (inactive) throughout. The GI50 in assay [19] and in [20] was > 100 µM (inactive) each time.
Regarding `O=C1CSC(/C(=C\c2ccc(Cl)cc2)c2nc3ccccc3[nH]2)=N1`, the GI50 is 17.8 µM (inactive) in [1]; 4.19 µM (inactive) in assay [2]; 22.8 µM in [3]; 7.91 µM (inactive) in assay [4]; 19.1 µM (inactive) in [5]; 17.9 µM (inactive) in assay [6]. The GI50 in assay [7] is 19.1 µM (inactive); in assay [8], 12.3 µM (inactive); in assay [9] it was 5.08 µM (inactive); in assay [10] it was 3.03 µM (inactive); in assay [11], 27.6 µM (inactive); in [12] it was 17 µM (inactive). For the same molecule, the GI50 in assay [13] is 10.1 µM (inactive); in assay [14], 17 µM (inactive); in [15], 7.78 µM (inactive); in [16] it was 16.7 µM (inactive); in assay [17] it was 1.94 µM (inactive); in assay [18], 16 µM (inactive). Also, the GI50 in [19] is 8.79 µM (inactive); in assay [20] it was 13.6 µM (inactive).
Regarding `Cc1ccc([N+](=O)[O-])cc1S(=O)(=O)Nc1ccc(C2=NOC(c3cccs3)C2)cc1` (centres undefined), the GI50 was 17.9 µM (inactive) in assay [1]; 4.56 µM (inactive) in [2]; 4.75 µM in assay [3]; 22.9 µM (inactive) in [4]; 7.8 µM (inactive) in assay [5]; 2.53 µM (inactive) in assay [6]. Also, the GI50 is 4.13 µM (inactive) in assay [7]; 18.4 µM (inactive) in [9]; 6.25 µM (inactive) in assay [10]; 8.93 µM (inactive) in assay [11]; 19.9 µM (inactive) in assay [12]; 11.1 µM (inactive) in assay [13]. For the same molecule, the GI50 was 32.3 µM (inactive) in assay [14]; 5.19 µM (inactive) in [15]; 13.9 µM (inactive) in assay [16]; 5.79 µM (inactive) in [17]; 11.1 µM (inactive) in assay [18]; 18.7 µM (inactive) in assay [19]. In addition, in [20], the GI50 is 17.5 µM (inactive).
